Measured values taken from patent US20260284150A1, “TOPICAL PROTEIN BASED FORMULATION” (OPTIMUS SALVUS LIMITED, priority 2023, published 2026).

Assays:
[1] = CBD dosage optimisation and cell toxicity assay (WST-1); format: cell-based; details: human; HDF cells, 24 hours incubation, WST-1 reagent, CBD up to 25 μg/mL; read-out: CBD concentrations toxic to human fibroblast cells
Description: The following reagents were purchased from ThermoFisher: Human Fibroblast Expansion Basal Medium, Low Serum Growth Supplement (LSGS), EpiLife™ Medium with 60 μM calcium, Human Keratinocyte Growth Supplement (HKGS), Trypsin-EDTA (0.05%), phenol red. Fetal Bovine Serum (French Origin) was purchased from Scientifix. Human skin cells: Fibroblasts (HDF) and Keratinocyte (HEK) cells were purchased from Sigma Aldrich and ThermoFisher respectively. HDF cells were grown in Fibroblast media supplemented with 1×LSGS, while HEK cells were grown in Keratinocyte media supplemented with 1×HKGS. Both cell lines were kept in an incubator at 37° C., with 5% CO2.
The human skin cells (HDF and HEK) were cultured in respective media and were grown in T25 flasks until ~70-80% confluent. Once confluent, the cells were washed with 1×PBS and split using 0.05% Trypsin-EDTA solution. The cell pellet was collected and split into a fresh T25 flask and T75 flask containing full growth media at a dilution factor of 1:4 and incubated at 37° C., 5% CO2. Cells were >85-92% viable based on Trypan blue exclusion when seeding and passing. […]

[2] = HEDS (2-hydroxyethyl disulphide) enzyme assay, NADPH consumption at A340 nm; format: biochemical; details: coupled with glutathione (GSH) and glutathione reductase (GR); versus buffer control without CLIC
Description: The functional activity of the purified CLIC1, CLIC3 and CLIC4 proteins were analysed using the HEDS assay. The assay measures the ability of the CLIC proteins to reduce the HEDS substrate when coupled with glutathione (GSH) and glutathione reductase (GR) resulting in the consumption of NADPH that is monitored at A340 nm.

Q: With C=C(C)[C@@H]1CCC(C)=C[C@H]1c1c(O)cc(CCCCC)cc1O [CBD, cannabidiol] as the compound, how does the MCC at 24 h [1] read?
A: > 4 µg/mL

Q: With “CLIC4: purified recombinant human chloride intracellular channel protein 4, expressed in E. coli, GST tag cleaved” as the compound, how does the “enzymatic activity: reduction of HEDS substrate, decrease in absorbance at 340 nm (consumption of NADPH)” value [2] read?
A: significant enzymatic activity
